Patent US12110299B2, “Thiazole derivatives and pharmaceutically acceptable salts thereof” (YUNGJIN PHARM. CO., LTD., priority 2018, dated 2024)

Key:
[1] = target: recombinant purified human CDK7 kinase (Homo sapiens (Human), UniProt P50613); experiment: CDK7 kinase-inhibitory activity, ADP-Glo kinase assay; type: biochemical; details: ATP 90 µM, MBP substrate, 2 hours at 30° C., read-out: CDK7 inhibition(IC50 nM)
Procedure: Representative compounds of the present invention were assayed in vitro for CDK7 kinase-inhibitory activities using ADP-Glo platform. In detail, CDK7 kinase-inhibitory activity was measured using recombinant purified human CDK7 kinase (ThermoFisher, PV3868) and ADP Glo kinase assays kit (Promega, V9102). CDK7 kinase was diluted with 1× kinase reaction buffer (40 mM Tris-C1, pH 7.5, 20 mM MgCl2, 0.1 mg/ml BSA and 50 [M DTT) and added to 96 well plates (final concentration of CDK7 per reaction: 50 ng). The compound was finally treated to be a 1% DMSO aqueous solution, and a substrate cocktail containing ATP (final concentration of 90 [M) and 0.2 μg/μl of MBP (Myelin basic protein) in a total of 25 μl of reaction mass was added to 96 well plates, thereby initiating an enzymatic reaction. After 2 hours of incubation (30° C.), equivalent volume (25 μl per reaction) of ADP Glo was added and incubated (30° C.) at room temperature for 60 minutes. The kinase detection reagent (50 μl per reaction) was then added and incubated (30° C.) at room temperature for 30 minutes. The kinase activity was measured by chemiluminescence method according to ADP Glo Kanease Assay Kit instruction manual, and the CDK7-inhibitory activity of the compounds according to the present invention was calculated. The result analysis of each compound was performed using Microsoft Excel, and IC50 values were calculated by Prism software.

MDA-MB-468 cells [2] = experiment: Anti-proliferative effect on MDA-MB-468 cells, inhibition rate at 100 nM (tetrazolium salt method); type: cell-based; details: Homo sapiens, 72 hours
Procedure: Representative compounds of the present invention were tested at different concentrations (from 1000 nM to 25 nM) to assess their ability to inhibit the proliferation of MDA-MB-468 cells. Cells were grown in RPMI 1640 (Welgene)+10% FBS (Gibco)+1% penicillin/streptomycin (Gibco) and cultured at 37° C. in a humidified chamber in the presence of 5% CO2.
MDA-MB-468 cells cultured in 96-well cell culture plates were treated with representative compounds of the present invention and cultured for 72 hours.

MDA-MB-468 cells [3] = experiment: Anti-proliferative effect on MDA-MB-468 cells, IC50 (MTT); type: cell-based
Procedure: The compounds of the present invention were tested at different concentrations (from 1000 nM to 1 nM) to assess their ability for inhibiting the proliferation of MDAMB-468 cells. Cells were cultivated in RPMI 1640 (Welgene)+10% FBS (Gibco)+1% penicillin/streptomycin (Gibco) and cultured at 37° C. in a humidified chamber in the presence of 5% C02.
MDA-MB-468 cells cultured in 96-well cell culture plates were treated with the compounds of the present invention and incubated for 72 hours.

HepG2 cells = experiment: HepG2 cell viability assay (CCK-8); type: cell-based, human
Procedure: The ability to inhibit the proliferation of HepG2 cells, which are human hepatocellular carcinoma cells, was measured through the in vitro cell viability assay. Cells were cultured at 37° C. in a humidified condition in the presence of 5% CO2 using a culture medium of MEM (Welgene)+10% FBS (Gibco)+1% penicillin/streptomycin (Gibco). […] Cell viability was measured by CCK-8 method using tetrazolium salt, and the ability of the compounds according to the present invention to inhibit cancer cell proliferation was calculated.

CDK2 = CDK2 (Homo sapiens (Human), UniProt P24941); experiment: scanMAX Kinase Assay Panel, CDK2; type: binding; details: read-out: % inhibition at 1 uM CDK2, compound at 1 uM
Procedure: (§1) The assay (scanMAX Kinase Assay Panel) was performed. […] Kinase Assay Panel contains a set of 468 kinases including CDK2, CDK5. The compounds were screened at 1 [M, and results for binding interactions are reported compared to control (%).

CDK5 = CDK5 (Homo sapiens (Human), UniProt Q00535); experiment: scanMAX Kinase Assay Panel, CDK5; type: binding; details: read-out: % inhibition at 1 uM CDK5, compound at 1 uM
CDK5, sequence (Q00535 whole entry): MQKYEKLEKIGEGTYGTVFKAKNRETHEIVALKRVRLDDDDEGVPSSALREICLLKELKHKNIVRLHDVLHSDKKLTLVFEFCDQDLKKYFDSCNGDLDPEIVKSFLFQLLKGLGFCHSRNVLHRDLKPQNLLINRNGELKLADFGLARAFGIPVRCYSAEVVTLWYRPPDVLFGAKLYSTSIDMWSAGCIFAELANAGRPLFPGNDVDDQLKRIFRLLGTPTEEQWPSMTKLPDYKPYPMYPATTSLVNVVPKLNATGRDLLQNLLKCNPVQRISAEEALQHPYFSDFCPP
Procedure: as §1

CDK7 = CDK7 (Homo sapiens (Human), UniProt P50613); experiment: scanMAX Kinase Assay Panel, CDK7; type: binding; details: read-out: % inhibition at 1 uM CDK7, compound at 1 uM
CDK7, sequence (P50613 whole entry): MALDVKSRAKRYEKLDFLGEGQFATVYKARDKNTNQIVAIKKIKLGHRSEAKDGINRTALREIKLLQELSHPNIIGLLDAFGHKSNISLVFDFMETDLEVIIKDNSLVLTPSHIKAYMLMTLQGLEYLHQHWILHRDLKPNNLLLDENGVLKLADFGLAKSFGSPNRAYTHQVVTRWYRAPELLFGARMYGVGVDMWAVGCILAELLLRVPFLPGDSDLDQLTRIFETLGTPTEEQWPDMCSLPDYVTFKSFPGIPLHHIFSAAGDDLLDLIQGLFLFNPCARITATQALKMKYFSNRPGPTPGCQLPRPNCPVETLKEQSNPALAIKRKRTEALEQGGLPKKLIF
Procedure: as §1

recombinant purified human CDK7 kinase, sequence (P50613 whole entry): as above
recombinant purified human CDK7 kinase, sequence (P51946 whole entry partner): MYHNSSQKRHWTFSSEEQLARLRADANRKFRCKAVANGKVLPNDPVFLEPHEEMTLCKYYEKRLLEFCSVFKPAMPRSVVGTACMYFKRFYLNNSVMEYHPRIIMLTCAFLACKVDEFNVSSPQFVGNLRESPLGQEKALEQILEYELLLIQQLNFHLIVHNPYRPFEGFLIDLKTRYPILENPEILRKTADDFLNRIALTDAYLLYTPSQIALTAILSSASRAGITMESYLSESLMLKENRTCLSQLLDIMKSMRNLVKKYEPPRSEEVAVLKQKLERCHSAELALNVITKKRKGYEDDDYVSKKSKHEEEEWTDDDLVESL
recombinant purified human CDK7 kinase, sequence (P51948 whole entry partner): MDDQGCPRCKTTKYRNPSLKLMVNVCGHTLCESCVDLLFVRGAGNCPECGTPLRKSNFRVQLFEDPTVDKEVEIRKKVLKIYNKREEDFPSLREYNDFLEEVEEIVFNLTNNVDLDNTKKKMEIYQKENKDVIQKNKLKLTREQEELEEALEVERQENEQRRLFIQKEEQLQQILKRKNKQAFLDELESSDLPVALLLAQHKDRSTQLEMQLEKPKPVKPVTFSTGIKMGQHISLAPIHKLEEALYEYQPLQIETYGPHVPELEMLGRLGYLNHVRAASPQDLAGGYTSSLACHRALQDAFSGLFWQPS

SMILES | IC50 [1] [nM] | IC50 (MDA-MB-468 cells [3]; Homo sapiens, MDA-MB-468, 72 h) [nM] | IC50 (HepG2 cells; Homo sapiens, HepG2, 72 h) [nM] | also measured
C=CC(=O)Nc1cnc(-c2cncc(C(C)C(=O)Nc3ncc(C(F)(F)F)s3)c2)cn1 (stereo not shown) [Example 45, N-(5-(5-(1-oxo-1-((5-(trifluoromethyl)thiazol-2-yl)amino)propan-2-yl)pyridin-3-yl)pyrazin-2-yl)acrylamide] | 22 | 10 | 8 | inhibition at 0.1 µM (MDA-MB-468 cells [2]): 59%
C=CC(=O)Nc1cnc(-c2cncc([C@H](C)C(=O)Nc3ncc(C(F)(F)F)s3)c2)cn1 [Example 52, (S)-N-(5-(5-(1-oxo-1-((5-(trifluoromethyl)thiazol-2-yl)amino)propan-2-yl)pyridin-3-yl)pyrazin-2-yl)acrylamide] | 19 | – | – | inhibition at 0.1 µM (MDA-MB-468 cells [2]): 72%
CC(C(=O)Nc1ncc(Cl)s1)c1cncc(-c2cnc(NC(=O)/C=C/CN(C)C)cn2)c1 (stereo not shown) [Example 73, (E)-N-(5-(5-(1-((5-chlorothiazol-2-yl)amino)-1-oxopropan-2-yl)pyridin-3-yl)pyrazin-2-yl)-4-(dimethylamino)but-2-enamide] | 43 | 35 | – | –
C[C@H](C(=O)Nc1ncc(C(F)(F)F)s1)c1cccc(-c2cnc(NC(=O)/C=C/CN(C)C)c(C#N)c2)c1 [Example 101, (S,E)-N-(3-cyano-5-(3-(1-oxo-1-((5-(trifluoromethyl)thiazol-2-yl)amino)propan-2-yl)phenyl)pyridin-2-yl)-4-(dimethylamino)but-2-enamide] | 7 | 30 | 5 | inhibition at 1 µM (CDK2): 26%; inhibition at 1 µM (CDK5): 22%; inhibition at 1 µM (CDK7): 99%
C[C@H](C(=O)Nc1ncc(C(F)(F)F)s1)c1cccc(-c2ccc(NC(=O)/C=C/CN(C)C)nc2)c1 [Example 116, (S,E)-4-(dimethylamino)-N-(5-(3-(1-oxo-1-((5-(trifluoromethyl)thiazol-2-yl)amino)propan-2-yl)phenyl)pyridin-2-yl)but-2-enamide] | 13 | 65 | – | –
CCc1cnc(NC(=O)[C@@H](C)c2cccc(-c3cnc(NC(=O)/C=C/CN(C)C)c(C#N)c3)c2)s1 [Example 121, (S,E)-N-(3-cyano-5-(3-(1-((5-ethylthiazol-2-yl)amino)-1-oxopropan-2-yl)phenyl)pyridin-2-yl)-4-(dimethylamino)but-2-enamide] | 7 | 23 | 3 | inhibition at 1 µM (CDK2): 20%; inhibition at 1 µM (CDK5): 30%; inhibition at 1 µM (CDK7): 99%
CCc1cnc(NC(=O)[C@@H](C)c2cccc(-c3cnc(NC(=O)/C=C/CN(C)C)c(C)c3)c2)s1 [Example 125] | 13 | 33 | – | –
CCc1cnc(NC(=O)[C@@H](C)c2cccc(-c3cnc(NC(=O)/C=C/CN(C)C)c(F)c3)c2)s1 [Example 130, (S,E)-4-(dimethylamino)-N-(5-(3-(1-((5-ethylthiazol-2-yl)amino)-1-oxopropan-2-yl)phenyl)-3-fluoropyridin-2-yl)but-2-enamide] | 8 | 18 | 3.8 | –

Further lines, with some results ahead:

IC50 [1] [nM] | IC50 (MDA-MB-468 cells [3]; Homo sapiens, MDA-MB-468, 72 h) [nM] | IC50 (HepG2 cells; Homo sapiens, HepG2, 72 h) [nM] | SMILES | also measured
17 | 40 | 8 | C=CC(=O)Nc1cnc(-c2cccc([C@H](C)C(=O)Nc3ncc(C(F)(F)F)s3)c2)cn1 [Example 37, (S)-N-(5-(3-(1-oxo-1-((5-(trifluoromethyl)thiazol-2-yl)amino)propan-2-yl)phenyl)pyrazin-2-yl)acrylamide] | inhibition at 0.1 µM (MDA-MB-468 cells [2]): 60%
17 | 20 | 2 | CC(C(=O)Nc1ncc(C(F)(F)F)s1)c1cncc(-c2cnc(NC(=O)/C=C/CN(C)C)cn2)c1 (stereo not shown) [Example 63, (E)-4-(dimethylamino)-N-(5-(5-(1-oxo-1-((5-(trifluoromethyl)thiazol-2-yl)amino)propan-2-yl)pyridin-3-yl)pyrazin-2-yl)but-2-enamide] | –
8 | – | – | C[C@H](C(=O)Nc1ncc(C(F)(F)F)s1)c1cccc(-c2cnc(NC(=O)/C=C/CN(C)C)cn2)c1 [Example 91, (S,E)-4-(dimethylamino)-N-(5-(3-(1-oxo-1-((5-(trifluoromethyl)thiazol-2-yl)amino)propan-2-yl)phenyl)pyrazin-2-yl)but-2-enamide] | IC50 (MDA-MB-468 cells [3]; 72 hours): 38 nM; IC50 (HepG2 cells; 72 hours): 9.5 nM
80 | 57 | – | C[C@H](C(=O)Nc1ncc(C(F)(F)F)s1)c1cccc(-c2cnc(NC(=O)/C=C/CN3CCN(C)CC3)cn2)c1 [Example 95, (S,E)-4-(4-methylpiperazin-1-yl)-N-(5-(3-(1-oxo-1-((5-(trifluoromethyl)thiazol-2-yl)amino)propan-2-yl)phenyl)pyrazin-2-yl)but-2-enamide] | –
15 | 56 | – | C[C@H](C(=O)Nc1ncc(C(F)(F)F)s1)c1cccc(-c2cnc(NC(=O)/C=C/CN3CC[C@H](F)C3)cn2)c1 [Example 117, (E)-4-((S)-3-fluoropyrrolidin-1-yl)-N-(5-(3-((S)-1-oxo-1-((5-(trifluoromethyl)thiazol-2-yl)amino)propan-2-yl)phenyl)pyrazin-2-yl)but-2-enamide] | –
9 | 44 | – | C[C@H](C(=O)Nc1ncc(C(F)(F)F)s1)c1cccc(-c2cnc(NC(=O)/C=C/CN3CCC(O)C3)cn2)c1 (stereo partly drawn) [Example 119, (E)-4-(3-hydroxypyrrolidin-1-yl)-N-(5-(3-((S)-1-oxo-1-((5-(trifluoromethyl)thiazol-2-yl)amino)propan-2-yl)phenyl)pyrazin-2-yl)but-2-enamide] | –
